The results in this text go back to patent US20210139484A1, “DIHYDROISOQUINOLINE-2(1H)-CARBOXAMIDE AND RELATED COMPOUNDS AND THEIR USE IN TREATING MEDICAL CONDITIONS” (GOSSAMER BIO SERVICES, INC., priority 2018, published 2021).

SMILES strings stand for the structures.

The target of the first test is T1, human HPK1 protein (Homo sapiens, UniProt Q92918).
T1 construct: recombinant human HPK1 protein (a.a. 1-346) was expressed in Sf9 insect cells; GST (N); purchased Signalchem M23-11G; host or cells: Sf9 insect cells (baculovirus)
T1 sequence (Q92918 1-346): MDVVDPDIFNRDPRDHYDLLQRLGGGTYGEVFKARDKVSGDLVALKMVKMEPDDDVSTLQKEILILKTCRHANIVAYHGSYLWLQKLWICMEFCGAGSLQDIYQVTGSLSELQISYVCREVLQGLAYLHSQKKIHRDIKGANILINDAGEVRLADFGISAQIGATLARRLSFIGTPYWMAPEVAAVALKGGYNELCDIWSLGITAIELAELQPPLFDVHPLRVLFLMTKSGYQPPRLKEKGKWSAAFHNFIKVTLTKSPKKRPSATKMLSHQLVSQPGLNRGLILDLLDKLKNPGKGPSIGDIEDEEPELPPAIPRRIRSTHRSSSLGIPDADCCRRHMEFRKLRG
In words: Human HPK1 protein TR-FRET assay. The format is biochemical. Particulars: 1 mM ATP, Table 19. In outline: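 Read-out was TR-FRET using Eu-labeled anti-phospho-CREB (Ser133) antibody, with the 665/615 nm signal ratio normalised to DMSO-only wells and fitted by a 4-parameter logistic model for IC50. Reactions held 10 nM Sf9-expressed GST-HPK1 (a.a. 1-346), 100 nM CREBtide and 1 mM ATP, run 60 minutes at room temperature, pH 7.5.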
On the technique in general: In TR-FRET formats the signal depends on donor and acceptor labels being close together.
By IC50 is commonly meant the concentration at which inhibition is half-maximal. In the case of `CCC1CN(C(=O)Nc2ccc(CN3CCN(CC)CC3)c(C(F)(F)F)c2)Cc2cc(Oc3ccnc4[nH]ccc34)ccc21` (centres unmarked) [IV-20], the concentration for half-maximal inhibition (IC50) was < 0.5 µM. `CCN1CCN(Cc2ccc(NC(=O)N3Cc4cc(Oc5ccnc6[nH]c(C)cc56)cnc4C(C)C3)cc2C(F)(F)F)CC1` (centres unmarked) [VII-3]: the IC50 is < 0.5 µM. With `CC1CN(C(=O)Nc2cnc(OC3CCN(C)CC3)c(C(F)(F)F)c2)Cc2cc(Oc3ccnc4[nH]ncc34)cnc21` (centres unmarked) [VII-10], the IC50 was < 0.5 µM. For `C[C@H]1c2cc(Oc3ccnc4[nH]ccc34)ccc2CCN1C(=O)Nc1ccc(OC2CCNCC2)c(C(F)F)c1` [V-14], the IC50 fell in the range of 0.5 to 5 µM.

`CCN1CCN(Cc2ccc(NC(=O)N3CCc4nc(C)c(Oc5ccnc6[nH]ccc56)cc4C3C)cc2C(F)(F)F)CC1` (centres unmarked) [IV-10] yielded an IC50 of 0.5 to 5 µM.

Regarding `C[C@H]1c2cc(Oc3ccnc4[nH]ccc34)ccc2CCN1C(=O)Nc1ccc(OC2CCN(CCO)CC2)c(C(F)(F)F)c1` [V-17], the IC50 was < 0.5 µM. Still for that read-out and setting: the value for `Cc1cc2c(Oc3ccc4c(c3)CN(C(=O)Nc3cnc(OC5CCN(C)CC5)c(C(F)(F)F)c3)CC4C)ccnc2[nH]1` (centres unmarked) [IV-38] was < 0.5 µM; that for `CCN1CCC(Oc2ncc(NC(=O)N3CCc4ccc(Oc5ccnc6[nH]c(C)cc56)cc4[C@@H]3C)cc2C(F)(F)F)CC1` [VI-3] was < 0.5 µM; that for `CCN1CCN(Cc2ccc(NC(=O)N3CCc4ccc(Oc5cc(NC(C)=O)ncn5)cc4C3)cc2C(F)(F)F)CC1` [II-9] was < 0.5 µM. The same measure, in the same setting: the value for `Cc1cc2c(Oc3ccc4c(c3)[C@H](C)N(C(=O)Nc3cnc(OCCn5ccnc5)c(C(F)(F)F)c3)CC4)ccnc2[nH]1` [VI-17] was 0.5 to 5 µM; that for `CCN1CCN(Cc2ccc(NC(=O)N3Cc4cc(Oc5ccnc6[nH]c(C)cc56)c(F)cc4C(C)C3)cc2C(F)(F)F)CC1` (centres unmarked) [IV-27] was < 0.5 µM.

With `Cc1cc2c(Oc3cnc4c(c3)CN(C(=O)Nc3cnc(OC5CCN(C)CC5)c(C(F)(F)F)c3)CC4C)ncnc2[nH]1` (centres unmarked) [VII-12], the IC50 was < 0.5 µM. Same read-out and setting: the value for `CCN1CCN(Cc2ccc(NC(=O)N3CCc4ncc(Oc5ccnc6[nH]ccc56)cc4C3)cc2C(F)(F)F)CC1` [VII-1] was < 0.5 µM.

The compound `Cc1cc2c(Oc3ccc4c(c3)[C@H](C)N(C(=O)Nc3cnc(Oc5ccncc5)c(C(F)(F)F)c3)CC4)ccnc2[nH]1` [VI-14] had an IC50 of 5 to 10 µM. The same measure, in the same setting: the value for `Cc1cc2c(Oc3cnc4c(c3)CN(C(=O)Nc3cnc(OC5CCN(C)CC5)c(C(F)(F)F)c3)CC4C)ncnc2[nH]1` (centres unmarked) [VII-14] was < 0.5 µM; that for `Cc1cc2c(Oc3ccc4c(c3)[C@H](C)N(C(=O)Nc3cnc(OC5CCN(CCO)CC5)c(C(F)(F)F)c3)CC4)ccnc2[nH]1` [VI-18] was < 0.5 µM; that for `CCN1CCN(Cc2ccc(NC(=O)N3Cc4cc(Nc5ccnc(NC)c5)cnc4C(C)C3)cc2C(F)(F)F)CC1` (single isomer, unassigned) [IX-3] was 5 to 10 µM. `CCN1CCN(Cc2ccc(NC(=O)N3CCc4ccc(Oc5ncnc6[nH]ccc56)cc4C3)cc2C(F)(F)F)CC1` [II-3]: the IC50 is < 0.5 µM. For `CCN1CCN(Cc2ccc(NC(=O)N3CCc4cc(C#N)c(Oc5ccnc6[nH]ccc56)cc4C3C)cc2C(F)(F)F)CC1` (centres unmarked) [IV-12], the IC50 is 0.5 to 5 µM. Same read-out and setting: next, `Cc1cc2c(Oc3ccc4c(c3)[C@H](C)N(C(=O)Nc3cnc(OC5CCN(C)CC5)c(C(F)(F)F)c3)CC4)ccnc2[nH]1` [VI-2]: < 0.5 µM; `CCN1CCN(Cc2ccc(NC(=O)N3CCc4cc(F)c(Oc5ccnn6cccc56)cc4C3C)cc2C(F)(F)F)CC1` (centres unmarked) [IV-31]: < 0.5 µM; `Cc1cc2c(Oc3ccc4c(c3)[C@H](C)N(C(=O)Nc3cnc(OC5CCNCC5)c(C(F)(F)F)c3)CC4)ccnc2[nH]1` [VI-1]: < 0.5 µM. On to `Cc1cc2c(Oc3ccc4c(c3)[C@H](C)N(C(=O)Nc3cnc(OC5CCN(C)CC5F)c(C(F)(F)F)c3)CC4)ccnc2[nH]1` (stereo in doubt) [VI-10], for which the 50% inhibitory concentration (IC50) was in the range of 0.5 to 5 µM. Regarding `CCN1CCN(Cc2ccc(NC(=O)N3Cc4cc(Oc5ccnc6[nH]ccc56)ccc4C(C)C3)cc2C(F)(F)F)CC1` (centres unmarked) [IV-3], the IC50 was < 0.5 µM.

Still in this test, the particulars now being: 1 mM ATP, Table 20.
On to `C[C@@H]1Cc2ccc(Oc3c(F)cnc4[nH]c(C5(O)CC5)cc34)cc2CN1C(=O)Nc1ccc(CN2CCN(C)CC2)c(C(F)(F)F)c1` [XVI-9], for which the IC50 is < 0.5 µM. On the same count and under the same terms, next, `CC[C@H]1CN(C(=O)Nc2cnc(OC3CCN(C)CC3)c(C(F)(F)F)c2)Cc2cc(Oc3ccnc4[nH]c(CCOC)cc34)cnc21` [XIV-35]: < 0.5 µM; `CCC1CN(C(=O)Nc2ccc(CN3CCN(CC)CC3)c(C(F)(F)F)c2)Cc2cc(Oc3ccnc4[nH]c(-c5cnn(C)c5)cc34)cnc21` (centres unmarked) [XIV-54]: < 0.5 µM; `CC[C@@H]1Cc2ncc(Oc3ccnc4[nH]ccc34)cc2CN1C(=O)Nc1ccc(CN2CCN(CC)CC2)c(C(F)(F)F)c1` [XVIII-17]: < 0.5 µM. The same measure, in the same setting: the value for `CN1CCN(Cc2ccc(NC(=O)N3CCc4ccc(Oc5c(F)cnc6[nH]c(-c7cccnc7)cc56)cc4C3)cc2C(F)(F)F)CC1` [XII-7] was < 0.5 µM.

For the compound `CC[C@H]1CN(C(=O)Nc2ccc(CN3CCNCC3)c(C(F)(F)F)c2)Cc2cc(Oc3ccnc4[nH]c(C#N)cc34)ccc21` [XV-17], the 50% inhibitory concentration (IC50) was < 0.5 µM. Same read-out and setting: the value for `CC[C@H]1CN(C(=O)Nc2ccc(CN3CCN(C)CC3)c(C(F)(F)F)c2)Cc2cc(Oc3ccnc4[nH]c(-c5cn[nH]c5)cc34)cnc21` [XIV-149] was < 0.5 µM; that for `CC[C@H]1CN(C(=O)Nc2ccc(CN3CCN(C)CC3)c(C(F)(F)F)c2)Cc2cc(Oc3ccnc4[nH]c(C(=O)NC)cc34)cnc21` [XIV-85] was < 0.5 µM; that for `CCN1CCN(Cc2ccc(NC(=O)N3CCc4ccc(Oc5ccnc6[nH]c(CO)cc56)cc4[C@@H]3C)cc2C(F)(F)F)CC1` [XIII-2] was < 0.5 µM. Turning to `CCN1CCN(Cc2ccc(NC(=O)N3CCc4ncc(Oc5ccnc6[nH]ccc56)cc4[C@@H]3C)cc2C(F)(F)F)CC1` [XI-3], the IC50 was < 0.5 µM.

For `CC[C@@H]1CN(C(=O)Nc2cnc(OC3CCN(C)CC3)c(C(F)(F)F)c2)Cc2cc(Oc3ccnc4[nH]c(C5(O)CC5)cc34)cnc21` [XIV-77], the IC50 was < 0.5 µM.

For the compound `CC[C@H]1CN(C(=O)Nc2ccc(CN3CCN(C)CC3)c(C(F)(F)F)c2)Cc2cc(Oc3ccnc4[nH]c(C5(O)COC5)cc34)cnc21` [XIV-51], the IC50 was < 0.5 µM. For `CN1CCN(Cc2cc(F)c(NC(=O)N3CCc4ccc(Oc5c(F)cnc6[nH]c(-c7cnn(C)c7)cc56)cc4C3)cc2C(F)(F)F)CC1` [XII-16], the concentration for half-maximal inhibition (IC50) was < 0.5 µM. The same measure, in the same setting: next, `CN1CCN(Cc2ccc(NC(=O)N3CCc4ccc(Oc5c(F)cnc6[nH]c(-c7cn[nH]c7)cc56)cc4C3)cc2C(F)(F)F)CC1` [XII-9]: < 0.5 µM; `CC[C@@H]1CN(C(=O)Nc2cnc(OC3CCN(C)CC3)c(C(F)(F)F)c2)Cc2cc(Oc3ccnc4[nH]c(C5CC5)cc34)cnc21` [XIV-43]: < 0.5 µM; `C[C@H]1c2cc(Oc3ccnc4[nH]c(CO)cc34)ccc2CCN1C(=O)Nc1ccc(CN2CCNCC2)c(C(F)(F)F)c1` [XIII-8]: < 0.5 µM.

With `CN1CCN(Cc2ccc(NC(=O)N3Cc4cc(Oc5ccnc6[nH]ccc56)ccc4C(C(F)(F)F)C3)cc2C(F)(F)F)CC1` (centres unmarked) [XVIII-14], the IC50 is < 0.5 µM. For the compound `CC[C@H]1CN(C(=O)Nc2ccc(CN3CCN(C)CC3)c(C(F)(F)F)c2)Cc2cc(Oc3ccnc4[nH]c(C#N)cc34)ccc21` [XV-28], the half-inhibitory concentration (IC50) is < 0.5 µM.

On to `CCC1CN(C(=O)Nc2ccc(CN3CCN(CC)CC3)c(C(F)(F)F)c2)Cc2cc(Oc3ccnc4[nH]c(C5=CCOCC5)cc34)cnc21` (centres unmarked) [XIV-61], for which the IC50 was < 0.5 µM.

As for `C[C@H]1c2cc(Oc3c(F)cnc4[nH]c(-c5cnn(C)c5)cc34)ccc2CCN1C(=O)Nc1ccc(CN2CCN(C)CC2)c(C(F)(F)F)c1` [XII-3], the IC50 was < 0.5 µM. As to `CCN1CCN(Cc2ccc(NC(=O)N3Cc4cc(Oc5ccnc6[nH]c(C7CC7)nc56)cnc4C(C)C3)cc2C(F)(F)F)CC1` (single isomer, unassigned) [XIV-15], the IC50 is < 0.5 µM. On the same count and under the same terms, next, `CC[C@H]1CN(C(=O)Nc2ccc(CN3CCNCC3)c(C(F)(F)F)c2)Cc2cc(Oc3ccnc4[nH]c(C5CC5)cc34)cnc21` [XIV-58]: < 0.5 µM; `C[C@H]1c2cc(Oc3ccnc4[nH]c(CO)cc34)ccc2CCN1C(=O)Nc1ccc(CN2CCN(C)CC2)c(C(F)F)c1` [XIII-9]: < 0.5 µM. The same measure, in the same setting: next, `CC[C@@H]1CN(C(=O)Nc2ccc(CN3CCN(CCO)CC3)c(C(F)F)c2)Cc2cc(Oc3ccnc4[nH]c(C#N)cc34)ccc21` [XV-20]: < 0.5 µM. Consider `CC[C@H]1CN(C(=O)Nc2ccc(CN3CCN(C)CC3)c(C(F)(F)F)c2)Cc2cc(Oc3ccnc4[nH]c(-c5nnc(C)o5)cc34)cnc21` [XIV-112], for which the IC50 was < 0.5 µM. On the same count and under the same terms, the value for `CC[C@H]1CN(C(=O)Nc2ccc(CN3CCNCC3)c(C(F)(F)F)c2)Cc2cc(Oc3ncnc4[nH]c(C(=O)NC)cc34)cnc21` [XIV-127] was < 0.5 µM; that for `CCC1CN(C(=O)Nc2ccc(CN3CCN(CC)CC3)c(C(F)(F)F)c2)Cc2cc(Oc3ncnc4[nH]c(C)cc34)cnc21` (centres unmarked) [XIV-4] was < 0.5 µM; that for `Cc1cc2c(Oc3cnc4c(c3)CN(C(=O)Nc3ccc(CN5CCN(C)CC5)c(C(F)(F)F)c3)C[C@H]4C)ccnc2[nH]1` [XIV-91] was < 0.5 µM. The same measure, in the same setting: the value for `CC[C@H]1CN(C(=O)Nc2ccc(CN3CCN(C)CC3)c(C(F)(F)F)c2)Cc2cc(Oc3ccnc4[nH]c(C(=O)N5CCCC5)cc34)cnc21` [XIV-102] was < 0.5 µM.
